The results in this text go back to patent US8778937B2, “Benzimidazole boronic acid derivatives as PI3 kinase inhibitors” (GlaxoSmithKline LLC, priority 2011, dated 2014).

Structures are written as SMILES.

Assay [1] deals with T1, PI3Kβ (Homo sapiens, UniProt P42338).
T1 construct: made in house
The experiment in a line: HTRF in vitro profiling assay for PI3K inhibition (beta isoform). It is filed as biochemical. The note with it: 200 pM enzyme, 100 uM ATP, 10 uM PIP2, 150 mM NaCl, corrected pIC50, single run or average of two or more runs, read-out: PI3K b pIC50 (converted). The protocol:
Compounds of the present invention were tested according to the following assays and found as inhibitors of PI3 kinases, particularly PI3Kβ. […] The IC50 value can be converted and presented as pIC50 value.
HTRF In Vitro Profiling Assays for PI3K Inhibition
The PI3-Kinase profiling assays were developed to measure the compound-dependent inhibition of the alpha, beta, delta, and gamma isoforms of PI3K in an in vitro catalytic assay. This assay was developed and optimized from a kit produced by Upstate (Millipore catalog #33-017). Briefly, this procedure utilizes a pre-formed HTRF (Homogeneous Time-Resolved Fluorescence energy transfer) complex between four binding partners: 1) biotinylated PIP3, 2) GST tagged pleckstrin homology (PH) domain, 3) Europium labeled anti-GST monoclonal antibody, and 4) Streptavidin-Allophycocyanin (APC). The native PIP3 produced by PI 3-Kinase activity displaces biotin-PIP3 from the PH domain, resulting in the dissociation of the HTRF complex and a decrease in the fluorescence signal. The format of this assay is the same for all 4 isoforms of PI3K; the differences lie in the concentration of enzyme used to achieve the most robust signal. The alpha and delta assays are run at 400 pM enzyme; the beta assay is at 200 pM enzyme and the gamma assay is run at 1 nM enzyme. In addition, the alpha, beta and delta assays are run with 150 mM NaCl while the gamma assay is run in the absence of NaCl. The ATP concentration is 100 uM in the alpha, beta, and delta assays and 15 uM ATP in the gamma assay. All reactions are run at 10 uM PIP2
Compounds were serially diluted (3-fold in 100% DMSO) across a 384-well polypropylene mother plate from column 1 to column 12 and column 13 to column 24, to yield 11 concentrations for each test compound. Columns 6 and 18 contain only DMSO. Once titrations were made, 0.05 μL was transferred to a 384-well low-volume assay plate (Greiner 784076). This assay plate contained three pharmacological controls (known PI3K inhibitors) and 3 assay controls: (1) Enzyme without inhibitor; (2) Buffer minus enzyme, and (3) Buffer minus enzyme plus native PIP3. DMSO was stamped into all wells of columns 6 and 18. PIP3 was added at 40 μM in 1× Reaction buffer (1 μL of 200 μM PIP3) to alternating rows of column 18 (wells 18 B, D, F, H, J, L, N, P). The no-enzyme control reactions were run in wells 18 A, C, E, G, I, K, M, O (0.1 μL of 100% DMSO).
The PI3-Kinase profiling assay was optimized using the HTRF kit provided by Upstate (Millipore). The assay kit contained seven reagents: 1) 4× Reaction Buffer; 2) native PIP2 (substrate); 3) Stop A (EDTA); 4) Stop B (Biotin-PIP3); 5) Detection Mix A (Streptavidin-APC); 6) Detection Mix B (Eu-labeled Anti-GST plus GST-tagged PH-domain); 7) Detection Mix C (KF). In addition, the following items were obtained or purchased: PI3Kinase (prepared by GSK BR&AD), dithiothreitol (Sigma, D-5545), Adenosine-5′-triphosphate (ATP, Teknova cat. # A0220), native PIP3 (1,2-dioctanoyl-sn-glycero-3-[phosphoinositil-3,4,5-triphosphate]tetraammonium salt (Avanti polar lipids, 850186P), DMSO (Sigma, 472301).
PI3Kinase Reaction Buffer was prepared by diluting the stock 1:4 with de-ionized water. Freshly prepared DTT was added at a final concentration of 5 mM on the day of use. Enzyme addition and compound pre-incubation were initiated by the addition of 2.5 μL of PI3K (at twice its final concentration) in 1× reaction buffer to all wells using a Multidrop Combi. Plates were incubated at room temperature for 15 minutes. Reactions were initiated by addition of 2.5 μL of 2× substrate solution (PIP2 and ATP in 1× reaction buffer) using a Multidrop Combi. Plates were incubated at room temperature for one hour. Reactions were quenched by the addition of 2.5 μL of stop solution (Stop A and Stop B pre-mixed at a ratio of 5:1, respectively) to all wells using the Multidrop Combi. […]

In assay [2] the test system is phosphorylation of AKT in MDA-MB-468 tumor cells. Kind of assay: Inhibition of phosphorylation of AKT (Ser473, MSD) in PTEN deficient tumor cell line MDA-MB-468. The class given is cell-based. The conditions noted are these: Homo sapiens, 0.5 h; MDA-MB-468 cells, 30 minutes compound treatment, Ser473-pAKT normalized to total AKT. As to the method: Cellular Assays—Inhibition of Phosphorylation of AKT in PTEN Deficient Tumor Cell Line MDA-MB-468
Compounds were evaluated for their ability to inhibit downstream phosphorylation of AKT in MDA-MB-468 tumor cells. Breast cancer cells were plated, incubated for approximately 16-20 hours and then treated with compound for 30 minutes. Final DMSO concentration on all cells was 0.15%. The cells were washed with Tris buffer and lysed in MesoScale Discovery (MSD) lysis buffer containing protease and phosphatase inhibitors (included in MSD kit). MSD Ser473-AKT duplex plates (Cat # MS6000) were used according to the manufacturer's instructions and plates were read on a SECTOR™ Imager 6000 using MSD Workbench software. For analysis of the Ser473-pAKT concentration response curves, the data was normalized using the corresponding total AKT value (sum of pAKT and AKT signal) and plotted as the percent of the DMSO-treated control values. The data was fit in Graphpad Prism version 4 for Windows (Graphpad Software, San Diego, Calif.).
The compounds listed in Table 2 were tested generally according to the assays described herein. Table 2 lists the IC50 values for either an experimental run or an average of two or more experimental runs with the examples shown.

T1 sequence (P42338 whole entry): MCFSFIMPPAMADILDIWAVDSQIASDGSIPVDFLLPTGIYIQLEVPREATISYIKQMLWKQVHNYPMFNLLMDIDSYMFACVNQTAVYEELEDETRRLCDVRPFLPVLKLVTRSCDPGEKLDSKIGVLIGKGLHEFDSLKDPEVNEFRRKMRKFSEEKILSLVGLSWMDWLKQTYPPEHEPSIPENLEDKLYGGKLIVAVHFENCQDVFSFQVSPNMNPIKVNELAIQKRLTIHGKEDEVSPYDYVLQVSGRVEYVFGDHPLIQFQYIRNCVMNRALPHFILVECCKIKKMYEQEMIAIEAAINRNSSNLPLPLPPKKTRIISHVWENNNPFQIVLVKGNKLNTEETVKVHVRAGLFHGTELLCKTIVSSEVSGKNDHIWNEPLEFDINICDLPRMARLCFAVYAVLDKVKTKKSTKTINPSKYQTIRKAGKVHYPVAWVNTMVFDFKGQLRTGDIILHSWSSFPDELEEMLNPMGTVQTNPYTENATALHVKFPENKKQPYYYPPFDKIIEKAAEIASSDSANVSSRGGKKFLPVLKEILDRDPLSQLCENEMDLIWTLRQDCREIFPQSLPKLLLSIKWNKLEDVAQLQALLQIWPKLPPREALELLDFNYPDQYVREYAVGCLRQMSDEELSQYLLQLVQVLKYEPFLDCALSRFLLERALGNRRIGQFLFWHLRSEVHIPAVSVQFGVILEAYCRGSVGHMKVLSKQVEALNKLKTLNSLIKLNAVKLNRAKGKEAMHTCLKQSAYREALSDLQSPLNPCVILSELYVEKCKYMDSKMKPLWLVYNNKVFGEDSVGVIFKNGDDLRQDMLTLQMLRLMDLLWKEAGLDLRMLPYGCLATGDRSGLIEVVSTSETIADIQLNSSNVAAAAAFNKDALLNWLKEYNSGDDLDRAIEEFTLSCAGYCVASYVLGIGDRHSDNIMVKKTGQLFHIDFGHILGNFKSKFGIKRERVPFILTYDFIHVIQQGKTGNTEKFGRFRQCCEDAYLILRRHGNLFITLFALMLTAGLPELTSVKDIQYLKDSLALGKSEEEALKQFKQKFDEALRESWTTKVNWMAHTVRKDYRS
T1 sequence (P27986 whole entry partner): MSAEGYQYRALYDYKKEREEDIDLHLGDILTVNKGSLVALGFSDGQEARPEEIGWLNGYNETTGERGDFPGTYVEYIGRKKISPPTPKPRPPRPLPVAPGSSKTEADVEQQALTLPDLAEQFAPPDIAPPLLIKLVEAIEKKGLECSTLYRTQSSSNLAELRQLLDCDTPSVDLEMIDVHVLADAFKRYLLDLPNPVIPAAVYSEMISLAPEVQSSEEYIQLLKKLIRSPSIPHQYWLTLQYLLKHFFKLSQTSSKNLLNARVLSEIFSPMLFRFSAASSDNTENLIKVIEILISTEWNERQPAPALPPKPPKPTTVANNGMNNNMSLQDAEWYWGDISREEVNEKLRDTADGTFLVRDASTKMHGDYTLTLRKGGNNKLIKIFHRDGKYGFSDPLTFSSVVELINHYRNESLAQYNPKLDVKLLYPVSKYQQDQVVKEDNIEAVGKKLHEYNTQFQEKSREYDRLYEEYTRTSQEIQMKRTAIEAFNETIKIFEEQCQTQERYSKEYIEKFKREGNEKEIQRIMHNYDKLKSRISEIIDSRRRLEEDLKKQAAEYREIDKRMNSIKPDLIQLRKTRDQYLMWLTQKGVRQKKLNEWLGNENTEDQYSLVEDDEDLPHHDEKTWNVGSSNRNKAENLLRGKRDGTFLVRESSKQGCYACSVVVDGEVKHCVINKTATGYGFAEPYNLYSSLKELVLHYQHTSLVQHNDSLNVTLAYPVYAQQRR

With `Cc1nc2c(B(O)O)cc(N3CCOCC3)cc2n1Cc1cccc2ccccc12` [Example 6, (2-methyl-6-morpholino-1-(naphthalen-1-ylmethyl)-1H-benzo[d]imidazol-4-yl)boronic acid], the values for the IC50 in assay [1] and in assay [2] were 0.501 nM and 78.2 nM, respectively.

In the case of `Cc1c(Cl)cccc1Cn1c(CF)nc2c(B(O)O)cc(N3CCOCC3)cc21` [Example 17, (1-(3-chloro-2-methylbenzyl)-2-(fluoromethyl)-6-morpholino-1H-benzo[d]imidazol-4-yl)boronic acid], the results for the IC50 in assay [1] and in assay [2] were 0.0631 nM and 14.5 nM, respectively.

With `Cc1c(Cl)cccc1Cn1c(C(F)F)nc2c(B(O)O)cc(N3CCOCC3)cc21` [Example 19, (1-(3-chloro-2-methylbenzyl)-2-(difluoromethyl)-6-morpholino-1H-benzo[d]imidazol-4-yl)boronic acid], the IC50 is 0.0794 nM in assay [1] and 70.9 nM in assay [2].

Take `Cc1nc2c(B(O)O)cc(N3CCOCC3)cc2n1Cc1cccc(Cl)c1` [Example 13, (1-(3-chlorobenzyl)-2-methyl-6-morpholino-1H-benzo[d]imidazol-4-yl)boronic acid]: the IC50 was 63.1 nM in assay [1] and 105 nM in assay [2].

For the compound `Cc1c(Cn2c(C)nc3c(B(O)O)cc(N4CCOCC4)cc32)cccc1C(F)(F)F` [Example 4, (2-methyl-1-(2-methyl-3-(trifluoromethyl)benzyl)-6-morpholino-1H-benzo[d]imidazol-4-yl)boronic acid], the IC50 in assay [1] is 0.398 nM; in assay [2], 18.7 nM.

Turning to `Cc1c(Cl)cccc1Cn1c(C)nc2c(B(O)O)cc(N3CCOCC3)cc21` [Example 5, (1-(3-chloro-2-methylbenzyl)-2-methyl-6-morpholino-1H-benzo[d]imidazol-4-yl)boronic acid], the IC50 in assay [1] was 0.2 nM; in assay [2] it was 8.97 nM.

As to `Cc1c(Cn2c(CF)nc3c(B(O)O)cc(N4CCOCC4)cc32)cccc1C(F)(F)F` [Example 16, (2-(fluoromethyl)-1-(2-methyl-3-(trifluoromethyl)benzyl)-6-morpholino-1H-benzo[d]imidazol-4-yl)boronic acid], the IC50 in assay [1] was 0.0631 nM; in assay [2], 19.1 nM.

As to `Cc1c(Cl)cccc1Cn1cnc2c(B(O)O)cc(N3CCOCC3)cc21` [Example 15, (1-(3-chloro-2-methylbenzyl)-6-morpholino-1H-benzo[d]imidazol-4-yl)boronic acid], the IC50 was 1.26 nM in assay [1] and 7.95 nM in assay [2].

In the case of `Cc1ccccc1Cn1c(C)nc2c(B(O)O)cc(N3CCOCC3)cc21` [Example 11, (2-methyl-1-(2-methylbenzyl)-6-morpholino-1H-benzo[d]imidazol-4-yl)boronic acid], the IC50 is 10 nM in assay [1] and 227 nM in assay [2].

For the compound `Cc1nc2c(B(O)O)cc(N3CCOCC3)cc2n1Cc1cccc(Cl)c1Cl` [Example 8, (1-(2,3-dichlorobenzyl)-2-methyl-6-morpholino-1H-benzo[d]imidazol-4-yl)boronic acid], the IC50 in assay [1] was 0.501 nM; in assay [2] it was 61 nM.

`Cc1cccc(Cn2c(C)nc3c(B(O)O)cc(N4CCOCC4)cc32)c1C` [Example 7, (1-(2,3-dimethylbenzyl)-2-methyl-6-morpholino-1H-benzo[d]imidazol-4-yl)boronic acid]: the IC50 is 0.501 nM in assay [1] and 45.6 nM in assay [2].

For `Cc1c(Cn2c(C(F)F)nc3c(B(O)O)cc(N4CCOCC4)cc32)cccc1C(F)(F)F` [Example 20, (2-(difluoromethyl)-1-(2-methyl-3-(trifluoromethyl)benzyl)-6-morpholino-1H-benzo[d]imidazol-4-yl)boronic acid], the results for the IC50 in assay [1] and in assay [2] were 0.126 nM and 40.1 nM, respectively.

Consider `Cc1c(Cn2c(CO)nc3c(B(O)O)cc(N4CCOCC4)cc32)cccc1C(F)(F)F` [Example 18, (2-(hydroxymethyl)-1-(2-methyl-3-(trifluoromethyl)benzyl)-6-morpholino-1H-benzo[d]imidazol-4-yl)boronic acid], for which the IC50 is 0.2 nM in assay [1] and 6.35 nM in assay [2].

Consider `Cc1c(Cn2cnc3c(B(O)O)cc(N4CCOCC4)cc32)cccc1C(F)(F)F` [Example 14, (1-(2-methyl-3-(trifluoromethyl)benzyl)-6-morpholino-1H-benzo[d]imidazol-4-yl)boronic acid], for which the IC50 in assay [1] is 1.58 nM; in assay [2] it was 24.4 nM.

In the case of `Cc1c(Cl)cccc1Cn1c(C(F)(F)F)nc2c(B(O)O)cc(N3CCOCC3)cc21` [Example 21, (1-(3-chloro-2-methylbenzyl)-6-morpholino-2-(trifluoromethyl)-1H-benzo[d]imidazol-4-yl)boronic acid], the results for the IC50 in assay [1] and in assay [2] were 0.0794 nM and 92.9 nM, respectively.

With `Cc1nc2c(B(O)O)cc(N3CCOCC3)cc2n1Cc1cccc2ccsc12` [Example 9], the IC50 in assay [1] was 1.26 nM; in assay [2], 65.8 nM.

Turning to `Cc1c(Cn2c(C(C)C)nc3c(B(O)O)cc(N4CCOCC4)cc32)cccc1C(F)(F)F` [Example 22, (2-isopropyl-1-(2-methyl-3-(trifluoromethyl)benzyl)-6-morpholino-1H-benzo[d]imidazol-4-yl)boronic acid], the IC50 in assay [1] was 3.16 nM; in assay [2], 74.6 nM.

Consider `Cc1c(Cn2c(C3CC3)nc3c(B(O)O)cc(N4CCOCC4)cc32)cccc1C(F)(F)F` [Example 23, (2-cyclopropyl-1-(2-methyl-3-(trifluoromethyl)benzyl)-6-morpholino-1H-benzo[d]imidazol-4-yl)boronic acid], for which the IC50 was 1.26 nM in assay [1] and 56.2 nM in assay [2].

For `Cc1cccc(Cn2c(C)nc3c(B(O)O)cc(N4CCOCC4)cc32)c1` [Example 10, (2-methyl-1-(3-methylbenzyl)-6-morpholino-1H-benzo[d]imidazol-4-yl)boronic acid], the results for the IC50 in assay [1] and in assay [2] were 63.1 nM and 672 nM, respectively.

On to `Cc1nc2c(B(O)O)cc(N3CCOCC3)cc2n1Cc1ccccc1Cl` [Example 12, (1-(2-chlorobenzyl)-2-methyl-6-morpholino-1H-benzo[d]imidazol-4-yl)boronic acid], for which the IC50 in assay [1] is 39.8 nM; in assay [2], 1490 nM.
